Assay results published in US5438052A, “Cephalosporin derivatives” (Hoffmann-La Roche Inc., priority 1991, dated 1995).
Values after ≈ are worked out from the molar mass of the structure shown. Like-named read-outs stand apart in the source and are kept apart here.

Key:
[1] = tested on: Pseudomonas aeruginosa BA; assay: Experimental systemic septicaemia in the mouse; type: in vivo; details: sc, 96 h
Summary of the method: (§1)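 Albino mice (16-20 g) infected i.p. with overnight culture at about 5-100× the 48 h LD50; groups of 5. Compounds given s.c. in 2% Tween 80 at 1 and 3 h post-infection (P. aeruginosa also at 5 h). ED50 (mg/kg s.c.) by Probit from 4-day survival.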

S. aureus Schoch = assay: Experimental systemic septicaemia in the mouse; type: in vivo; details: Staphylococcus aureus, sc, 96 h
Summary of the method: as §1

E. coli 25922 [2] = assay: Experimental systemic septicaemia in the mouse; type: in vivo; details: 96 h
Summary of the method: as §1

P. aeruginosa 27853 = assay: Minimum inhibitory concentration in vitro, agar dilution method; type: cell-based; details: Pseudomonas aeruginosa
Excerpt: (§2) 1. Minimum Inhibitory Concentration in vitro
(§3) The activities ascertained, minimum inhibitory concentration (MIC) in μg/ml, are compiled in Table 1 hereinafter: […]

K. pneumoniae 418 = assay: as above; type: cell-based; details: Klebsiella pneumoniae
Excerpt: as §2, §3

P. aeruginosa BA = assay: as above; type: cell-based; details: Pseudomonas aeruginosa
Excerpt: as §2, §3

P. mirabilis 2117 = assay: as above; type: cell-based; details: Proteus mirabilis
Excerpt: as §2, §3

C. freundii 902 = assay: as above; type: cell-based; details: Citrobacter freundii
Excerpt: as §2, §3

E. cloacae 908SSi = assay: as above; type: cell-based; details: Enterobacter cloacae
Excerpt: as §2, §3

P. aeruginosa 799/WT = assay: as above; type: cell-based; details: Pseudomonas aeruginosa
Excerpt: as §2, §3

P. aeruginosa MK1184 = assay: as above; type: cell-based; details: Pseudomonas aeruginosa
Excerpt: as §2, §3

S. aureus 6538 = assay: as above; type: cell-based; details: Staphylococcus aureus
Excerpt: as §2, §3

S. marcescens 69438 = assay: as above; type: cell-based; details: Serratia marcescens
Excerpt: as §2, §3

E. cloacae 908R = assay: as above; type: cell-based; details: Enterobacter cloacae
Excerpt: as §2, §3

P. aeruginosa 799/61 = assay: as above; type: cell-based; details: Pseudomonas aeruginosa
Excerpt: as §2, §3

S. pyogenes 15 = assay: as above; type: cell-based; details: Streptococcus pyogenes
Excerpt: as §2, §3

E. coli 25922 [3] = assay: as above; type: cell-based; details: Escherichia coli
Excerpt: as §2, §3

P. vulgaris 1028 = assay: as above; type: cell-based; details: Proteus vulgaris
Excerpt: as §2, §3

S. pneumoniae BA = assay: as above; type: cell-based; details: Streptococcus pneumoniae
Excerpt: as §2, §3

K. oxytoca 1082 = assay: as above; type: cell-based; details: Klebsiella oxytoca
Excerpt: as §2, §3

E. cloacae P99 = assay: as above; type: cell-based; details: Enterobacter cloacae
Excerpt: as §2, §3

[4] = P. aeruginosa BA, albino mice, s.c. 1, 3 and 5 hours after infection, survival after 4 days, read-out: ED50
[5] = S. aureus Schoch, albino mice, s.c. 1 and 3 hours after infection, survival after 4 days, read-out: ED50
[6] = Escherichia coli, sc, E. coli 25922, albino mice, s.c. 1 and 3 hours after infection, survival after 4 days, read-out: ED50
[7] = P. aeruginosa 27853, agar dilution, read-out: MIC
[8] = K. pneumoniae 418, agar dilution, read-out: MIC
[9] = P. aeruginosa BA, agar dilution, read-out: MIC
[10] = P. mirabilis 2117, agar dilution, read-out: MIC
[11] = C. freundii 902, agar dilution, read-out: MIC
[12] = E. cloacae 908SSi, agar dilution, read-out: MIC
[13] = P. aeruginosa 799/WT, agar dilution, read-out: MIC
[14] = P. aeruginosa MK1184, agar dilution, read-out: MIC
[15] = S. aureus 6538, agar dilution, read-out: MIC
[16] = S. marcescens 69438, agar dilution, read-out: MIC
[17] = E. cloacae 908R, agar dilution, read-out: MIC
[18] = P. aeruginosa 799/61, agar dilution, read-out: MIC
[19] = S. pyogenes 15, agar dilution, read-out: MIC
[20] = E. coli 25922, agar dilution, read-out: MIC
[21] = P. vulgaris 1028, agar dilution, read-out: MIC
[22] = K. oxytoca 1082, agar dilution, read-out: MIC

Compound | ED50 [1, 4] [mg/kg] | ED50 (S. aureus Schoch; [5]) [mg/kg] | ED50 (E. coli 25922 [2]; [6]) [mg/kg] | MIC (P. aeruginosa 27853; [7]) [µg/mL] | MIC (K. pneumoniae 418; [8]) [µg/mL] | MIC (P. aeruginosa BA; [9]) [µg/mL] | MIC (P. mirabilis 2117; [10]) [µg/mL] | MIC (C. freundii 902; [11]) [µg/mL] | MIC (E. cloacae 908SSi; [12]) [µg/mL] | MIC (P. aeruginosa 799/WT; [13]) [µg/mL] | MIC (P. aeruginosa MK1184; [14]) [µg/mL] | MIC (S. aureus 6538; [15]) [µg/mL] | MIC (S. marcescens 69438; [16]) [µg/mL] | MIC (E. cloacae 908R; [17]) [µg/mL] | MIC (E. cloacae P99) [µg/mL] | MIC (P. aeruginosa 799/61; [18]) [µg/mL] | MIC (S. pyogenes 15; [19]) [µg/mL] | MIC (E. coli 25922 [3]; [20]) [µg/mL] | MIC (P. vulgaris 1028; [21]) [µg/mL] | MIC (K. oxytoca 1082; [22]) [µg/mL] | other results
Cc1cc(SCC2=C(C(=O)[O-])N3C(=O)[C@@H](NC(=O)/C(=N\OC(C)(C)C(=O)NNC(=O)c4ccc(O)c(O)c4)c4csc(N)n4)[C@H]3SC2)n2nc(CNS(=O)(=O)c3ccc(O)c(O)c3)nc2n1.[Na+] [Example 42, (6R,7R)-7-[(Z)-2-(2-amino-4-thiazolyl)-2-[[1-[3-(3,4-dihydroxybenzoyl)carbazoyl]-1-methylethoxy]imino]acetamido]-3-[[[2-[(3,4-dihydroxybenzenesulphonamido)methyl]-5-methyl-s-triazolo[1,5-a]pyrimidin-7-yl]thio]methyl]-8-oxo-5-thia-1-azabicyclo[4.2.0]oct-2-ene-2-carboxylic acid sodium salt (1:1)] |  |  |  |  |  |  |  |  |  |  |  |  |  |  |  |  |  |  |  |  | ED50 [1]: 0.017 mg/kg; ED50 (S. aureus Schoch): 10 mg/kg; ED50 (E. coli 25922 [2]; Escherichia coli, 25922, sc): 0.005 mg/kg; MIC (P. aeruginosa 27853; 27853): 0.25 µg/mL; MIC (K. pneumoniae 418; 418): < 0.1 µg/mL; MIC (P. aeruginosa BA): < 0.1 µg/mL; MIC (P. mirabilis 2117; 2117): 0.12 µg/mL; MIC (C. freundii 902; 902): < 0.1 µg/mL; MIC (E. cloacae 908SSi; 908SSI): 4 µg/mL; MIC (P. aeruginosa 799/WT; 799/WT): < 0.1 µg/mL; MIC (P. aeruginosa MK1184; MK1184): < 0.1 µg/mL; MIC (S. aureus 6538; 6538): 32 µg/mL; MIC (S. marcescens 69438; 69438): 0.12 µg/mL; MIC (E. cloacae 908R; 908R): 0.5 µg/mL; MIC (P. aeruginosa 799/61; 799/61): < 0.1 µg/mL; MIC (S. pyogenes 15; 15): 8 µg/mL; MIC (E. coli 25922 [3]; 25922): < 0.1 µg/mL; MIC (P. vulgaris 1028; 1028): 0.25 µg/mL; MIC (S. pneumoniae BA): 4 µg/mL; MIC (K. oxytoca 1082; 1082): < 0.1 µg/mL
Nc1nc(/C(=N/OCc2cc(=O)c(O)co2)C(=O)N[C@@H]2C(=O)N3C(C(=O)O)=C(CSc4cc(-c5ccc(O)c(O)c5)nc5ccnn45)CS[C@H]23)cs1 [Example 14, (6R,7R)-7-[(Z)-2-(2-amino-4-thiazolyl)-2-[[(5-hydroxy-4-oxo-4H-pyran-2-yl)methoxy]imino]acetamido]-3-[[[5-(3,4-dihydroxyphenyl)pyrazolo[1,5-a]pyrimidin-7-yl]thio]methyl]-8-oxo-5-thia-1-azabicyclo[4.2.0]oct-2-ene-2-carboxylicacid] | 7.1 | > 12 | 4.4 | 4 (≈ 5.23 µM) | 0.06 (≈ 0.0785 µM) | 4 (≈ 5.23 µM) | 0.5 (≈ 0.654 µM) | 1 (≈ 1.31 µM) | 1 (≈ 1.31 µM) | 1 (≈ 1.31 µM) | 16 (≈ 20.9 µM) | 16 (≈ 20.9 µM) | 0.25 (≈ 0.327 µM) | 2 (≈ 2.62 µM) | 16 (≈ 20.9 µM) | 0.06 (≈ 0.0785 µM) | 0.5 (≈ 0.654 µM) | 0.12 (≈ 0.157 µM) | 0.25 (≈ 0.327 µM) | 0.12 (≈ 0.157 µM) | MIC (S. pneumoniae BA; S. pneumoniae BA, agar dilution, read-out: MIC): 0.5 µg/mL (≈ 0.654 µM)
Cc1cc(SCC2=C(C(=O)O)N3C(=O)[C@@H](NC(=O)/C(=N\OCc4ccc(O)c(O)c4)c4csc(N)n4)[C@H]3SC2)n2nc(CNS(=O)(=O)c3ccc(O)c(O)c3)nc2n1 [Example 4, (6R,7R)-7-[(Z)-2-(2-amino-4-thiazolyl)-2-[[(3,4-dihydroxybenzyl)oxy]imino]acetamido]-3-[[[2-[(3,4-dihydroxybenzenesulphonamido)methyl]-5-methyl-s-triazolo[1,5-a]pyrimidin-7-yl]thio]methyl]-8-oxo-5-thia-1-azabicyclo[4.2.0]oct-2-ene-2carboxylic acid] | 0.12 | 3.1 | < 0.1 | 0.5 (≈ 0.574 µM) | < 0.1 | < 0.1 | 0.25 (≈ 0.287 µM) | < 0.1 | 4 (≈ 4.59 µM) | 0.25 (≈ 0.287 µM) | 0.25 (≈ 0.287 µM) | 4 (≈ 4.59 µM) | 0.12 (≈ 0.138 µM) | 1 (≈ 1.15 µM) | 32 (≈ 36.7 µM) | 0.12 (≈ 0.138 µM) | 0.25 (≈ 0.287 µM) | < 0.1 | 1 (≈ 1.15 µM) | 16 (≈ 18.4 µM) | 
